Reference: ChEMBL document CHEMBL1152888, “Synthesis, pharmacological and in silico evaluation of 1-(4-di-hydroxy-3,5-dioxa-4-borabicyclo[4.4.0]deca-7,9,11-trien-9-yl)-2-(tert-butylamino)ethanol, a compound designed to act as a beta2 adrenoceptor agonist” (Eur J Med Chem, 2009)
Activity calls are given as the source filed them. The rule behind the calls is not given here.

Columns and labels:
[1] = target: Beta-2 adrenergic receptor (Homo sapiens, UniProt P07550)
Description: Binding affinity to human adrenergic beta2 receptor

[2] = target: Beta-2 adrenergic receptor (Cavia porcellus) (UniProt Q8K4Z4); test: Agonist activity at adrenergic beta2 receptor in Hartley guinea pig tracheal ring assessed as bronchorelaxation activity against histamine-induced contraction in presence of ICI-118551; format: functional, tissue-based; details: Trachea
[3] = target: Beta-2 adrenergic receptor (Cavia porcellus) (UniProt Q8K4Z4); test: Agonist activity at adrenergic beta2 receptor in Hartley guinea pig tracheal ring assessed as maximum bronchorelaxation activity against histamine-induced contraction at 1 uM; format: functional, tissue-based; details: Trachea
[4] = target: T1, Beta-2 adrenergic receptor (Cavia porcellus, UniProt Q8K4Z4); test: (§1) Agonist activity at adrenergic beta2 receptor in Hartley guinea pig tracheal ring assessed as bronchorelaxation activity against carbachol-induced contraction; format: functional, tissue-based, Trachea
[5] = target: Beta-2 adrenergic receptor (Cavia porcellus) (UniProt Q8K4Z4); test: as §1; format: functional, tissue-based; details: Trachea
[6] = target: Beta-2 adrenergic receptor (Cavia porcellus) (UniProt Q8K4Z4); test: Agonist activity at adrenergic beta2 receptor in Hartley guinea pig tracheal ring assessed as maximum bronchorelaxation activity against carbachol-induced contraction at 1 uM; format: functional, tissue-based; details: Trachea
[7] = target: T1, Beta-2 adrenergic receptor; test: Binding affinity to adrenergic beta2 receptor in Hartley guinea pig tracheal ring
[8] = target: Beta-2 adrenergic receptor (Cavia porcellus) (UniProt Q8K4Z4); test: Agonist activity at adrenergic beta2 receptor in Hartley guinea pig tracheal ring assessed as bronchorelaxation activity against histamine-induced contraction in presence of propranolol; format: functional, tissue-based; details: Trachea
[9] = target: T1, Beta-2 adrenergic receptor; test: (§2) Agonist activity at adrenergic beta2 receptor in Hartley guinea pig tracheal ring assessed as bronchorelaxation activity against histamine-induced contraction; format: functional, tissue-based, Trachea
[10] = target: Beta-2 adrenergic receptor (Cavia porcellus) (UniProt Q8K4Z4); test: as §2; format: functional, tissue-based; details: Trachea

T1 sequence (Q8K4Z4 whole entry): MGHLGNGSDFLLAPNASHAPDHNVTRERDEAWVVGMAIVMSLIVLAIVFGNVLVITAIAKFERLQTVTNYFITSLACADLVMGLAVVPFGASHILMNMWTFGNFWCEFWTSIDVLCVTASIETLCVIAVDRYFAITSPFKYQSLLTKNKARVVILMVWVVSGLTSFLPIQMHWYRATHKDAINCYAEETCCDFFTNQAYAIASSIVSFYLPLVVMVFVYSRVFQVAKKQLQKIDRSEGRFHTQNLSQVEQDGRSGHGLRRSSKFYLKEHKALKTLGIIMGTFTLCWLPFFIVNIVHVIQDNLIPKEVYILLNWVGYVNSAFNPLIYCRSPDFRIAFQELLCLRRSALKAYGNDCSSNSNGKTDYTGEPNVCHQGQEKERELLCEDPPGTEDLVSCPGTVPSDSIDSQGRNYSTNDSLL
Beta-2 adrenergic receptor (Cavia porcellus), sequence (Q8K4Z4 whole entry, looked up): as the sequence (Q8K4Z4 whole entry) above
Beta-2 adrenergic receptor (Homo sapiens, UniProt P07550), sequence (P07550 whole entry): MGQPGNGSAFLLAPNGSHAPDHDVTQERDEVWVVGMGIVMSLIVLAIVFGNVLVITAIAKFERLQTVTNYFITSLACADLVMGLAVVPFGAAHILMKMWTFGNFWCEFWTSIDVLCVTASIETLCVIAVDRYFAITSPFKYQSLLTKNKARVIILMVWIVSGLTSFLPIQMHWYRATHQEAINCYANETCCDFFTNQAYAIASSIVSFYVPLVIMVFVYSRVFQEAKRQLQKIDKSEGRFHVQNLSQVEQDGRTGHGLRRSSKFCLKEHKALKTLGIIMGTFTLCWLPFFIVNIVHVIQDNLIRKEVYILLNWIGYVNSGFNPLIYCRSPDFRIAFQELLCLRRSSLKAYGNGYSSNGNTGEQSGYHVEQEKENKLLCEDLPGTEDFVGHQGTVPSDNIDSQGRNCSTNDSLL

Kd [1] [nM]	Activity [2]	Activity [3]	EC50 [4] [nM]	Activity [5]	Activity [6]	Kd [7] [nM]	Activity [8]	EC50 [9] [nM]	Activity [10]	Compound
4810										CC(C)NCC(O)c1cc(O)cc(O)c1 (centres undefined) [METAPROTERENOL]
	inactive	Active	2.1	Dose-dependent effect	Active	110	inactive	0.072	Dose-dependent effect	CC(C)(C)NC[C@@H](O)c1ccc(OB(O)O)c(CO)c1
	inactive			Dose-dependent effect			inactive		Dose-dependent effect	CC(C)(C)NCC(O)c1ccc(O)c(CO)c1 (centres undefined)
